Data published in publication PMC2196289 (The Journal of Experimental Medicine, 1997).

Target: T1, mouse LXA4R (lipoxin A4 receptor) (Mus musculus, UniProt O08790)
T1 sequence (O08790 1-351): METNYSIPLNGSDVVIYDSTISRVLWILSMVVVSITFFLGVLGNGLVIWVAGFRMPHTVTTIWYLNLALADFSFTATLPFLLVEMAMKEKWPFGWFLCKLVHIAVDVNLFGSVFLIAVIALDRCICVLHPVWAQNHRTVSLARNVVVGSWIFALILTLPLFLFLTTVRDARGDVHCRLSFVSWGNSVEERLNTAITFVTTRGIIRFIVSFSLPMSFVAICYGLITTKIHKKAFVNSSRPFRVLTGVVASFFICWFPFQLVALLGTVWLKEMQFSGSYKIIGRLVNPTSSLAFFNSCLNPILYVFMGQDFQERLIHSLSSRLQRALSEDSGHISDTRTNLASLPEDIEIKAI
Assay: [3H]LXA4 radioligand binding
Format: cell-based

- Kd: 1.5 ± 0.6 nM
SMILES: CCCCC[C@H](O)/C=C/C=C\C=C\C=C\[C@@H](O)[C@@H](O)CCCC(=O)O [LXA4, 5(S),6(R),15(S)-trihydroxy7,9,13-trans-11-cis-eicosatetraenoic acid]
